Experimental data reported in patent publication US8895744B2, “Alfa-carboline inhibitors of NPM-ALK, RET, and Bcr-Abl” (Universita' Degli Studi di Milano-Bicocca, priority 2008, dated 2014).

How the values were obtained:
Recombinant ALK kinase = biological target: T1, Recombinant ALK kinase (Homo sapiens, UniProt Q9UM73); test: ALK kinase inhibitory activity, ELISA-based in vitro kinase assay; type: biochemical; conditions: purified rALK, 0.3 mM ATP, read-out: ALK IC50
T1 construct: made in house; host or cells: Sf9 insect cells (baculovirus)
T1 sequence (Q9UM73 19-1620): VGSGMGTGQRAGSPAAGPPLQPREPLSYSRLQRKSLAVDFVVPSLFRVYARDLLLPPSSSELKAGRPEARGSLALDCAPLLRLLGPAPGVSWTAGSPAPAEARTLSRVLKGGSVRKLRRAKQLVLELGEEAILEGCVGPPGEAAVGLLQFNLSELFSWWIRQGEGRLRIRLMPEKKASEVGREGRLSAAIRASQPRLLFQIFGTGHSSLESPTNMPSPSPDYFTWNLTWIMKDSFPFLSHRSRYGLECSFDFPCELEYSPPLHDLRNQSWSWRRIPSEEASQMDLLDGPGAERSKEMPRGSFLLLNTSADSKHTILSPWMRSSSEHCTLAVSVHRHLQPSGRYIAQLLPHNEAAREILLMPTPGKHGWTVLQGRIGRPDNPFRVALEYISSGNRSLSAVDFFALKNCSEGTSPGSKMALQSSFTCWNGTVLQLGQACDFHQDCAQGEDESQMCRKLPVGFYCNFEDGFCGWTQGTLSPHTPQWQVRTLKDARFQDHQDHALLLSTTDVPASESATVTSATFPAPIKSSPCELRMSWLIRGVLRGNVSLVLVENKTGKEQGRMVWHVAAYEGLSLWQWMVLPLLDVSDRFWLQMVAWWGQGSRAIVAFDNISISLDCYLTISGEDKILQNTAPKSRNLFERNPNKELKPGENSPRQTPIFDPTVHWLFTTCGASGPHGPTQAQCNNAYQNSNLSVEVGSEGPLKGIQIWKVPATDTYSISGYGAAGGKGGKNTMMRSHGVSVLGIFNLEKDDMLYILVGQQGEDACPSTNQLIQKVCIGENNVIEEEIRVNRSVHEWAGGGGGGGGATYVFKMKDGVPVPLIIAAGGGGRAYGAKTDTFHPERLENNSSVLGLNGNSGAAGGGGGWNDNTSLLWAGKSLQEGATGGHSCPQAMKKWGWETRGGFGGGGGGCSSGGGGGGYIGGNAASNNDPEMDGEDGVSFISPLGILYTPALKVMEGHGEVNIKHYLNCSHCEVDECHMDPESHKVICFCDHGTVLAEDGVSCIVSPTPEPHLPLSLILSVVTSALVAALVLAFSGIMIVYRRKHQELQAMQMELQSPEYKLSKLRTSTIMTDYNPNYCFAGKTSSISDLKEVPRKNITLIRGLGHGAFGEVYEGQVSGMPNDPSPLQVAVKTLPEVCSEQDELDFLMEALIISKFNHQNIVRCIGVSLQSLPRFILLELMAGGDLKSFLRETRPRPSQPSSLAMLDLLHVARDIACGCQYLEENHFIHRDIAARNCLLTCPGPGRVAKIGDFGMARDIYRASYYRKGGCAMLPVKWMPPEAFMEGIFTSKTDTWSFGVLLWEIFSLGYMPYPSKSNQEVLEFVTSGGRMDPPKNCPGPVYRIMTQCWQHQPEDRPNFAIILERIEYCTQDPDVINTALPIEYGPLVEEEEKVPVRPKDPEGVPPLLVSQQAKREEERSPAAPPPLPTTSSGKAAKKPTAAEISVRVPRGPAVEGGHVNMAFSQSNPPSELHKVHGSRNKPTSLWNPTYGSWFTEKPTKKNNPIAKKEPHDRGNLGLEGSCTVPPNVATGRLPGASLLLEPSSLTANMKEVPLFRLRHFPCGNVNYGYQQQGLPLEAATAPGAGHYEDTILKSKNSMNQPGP
Method in brief: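 Sf9-expressed, purified recombinant ALK phosphorylated a plate-coated peptide substrate with 0.3 mM ATP, Mn2+/Mg2+, pH 7.5, 15 min at 30° C, after 10 min inhibitor preincubation. Phosphotyrosine was detected by anti-pTyr ELISA (TMB, A450); IC50 in μM is the concentration giving 50% inhibition relative to control.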

[1] = biological target: T2, Recombinant Abl T315I protein (Homo sapiens, UniProt P00519, T315I); test: Abl T315I mutant kinase inhibitory activity, ELISA-based in vitro kinase assay; type: biochemical; conditions: purified Abl T315I, 0.3 mM ATP
T2 construct: made in house; host or cells: Sf9 cells (baculovirus)
Method in brief: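 His-tagged human Abl T315I from Sf9 cells, preincubated 10 min at room temperature with inhibitor, then reacted on peptide-coated plates with 0.3 mM ATP, 1 mM MnCl2, 5 mM MgCl2 in 50 mM Tris pH 7.5. Phosphotyrosine detected by anti-pTyr/HRP ELISA at 450 nm; IC50 as 50% inhibition vs control.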

Recombinant Ret protein = biological target: T3, Recombinant Ret protein (Homo sapiens, UniProt P07949); test: RET kinase inhibitory activity, ELISA-based in vitro kinase assay; type: biochemical; conditions: purified Ret, 0.3 mM ATP
T3 construct: made in house; host or cells: Sf9 cells (baculovirus)
T3 sequence (P07949 29-1114): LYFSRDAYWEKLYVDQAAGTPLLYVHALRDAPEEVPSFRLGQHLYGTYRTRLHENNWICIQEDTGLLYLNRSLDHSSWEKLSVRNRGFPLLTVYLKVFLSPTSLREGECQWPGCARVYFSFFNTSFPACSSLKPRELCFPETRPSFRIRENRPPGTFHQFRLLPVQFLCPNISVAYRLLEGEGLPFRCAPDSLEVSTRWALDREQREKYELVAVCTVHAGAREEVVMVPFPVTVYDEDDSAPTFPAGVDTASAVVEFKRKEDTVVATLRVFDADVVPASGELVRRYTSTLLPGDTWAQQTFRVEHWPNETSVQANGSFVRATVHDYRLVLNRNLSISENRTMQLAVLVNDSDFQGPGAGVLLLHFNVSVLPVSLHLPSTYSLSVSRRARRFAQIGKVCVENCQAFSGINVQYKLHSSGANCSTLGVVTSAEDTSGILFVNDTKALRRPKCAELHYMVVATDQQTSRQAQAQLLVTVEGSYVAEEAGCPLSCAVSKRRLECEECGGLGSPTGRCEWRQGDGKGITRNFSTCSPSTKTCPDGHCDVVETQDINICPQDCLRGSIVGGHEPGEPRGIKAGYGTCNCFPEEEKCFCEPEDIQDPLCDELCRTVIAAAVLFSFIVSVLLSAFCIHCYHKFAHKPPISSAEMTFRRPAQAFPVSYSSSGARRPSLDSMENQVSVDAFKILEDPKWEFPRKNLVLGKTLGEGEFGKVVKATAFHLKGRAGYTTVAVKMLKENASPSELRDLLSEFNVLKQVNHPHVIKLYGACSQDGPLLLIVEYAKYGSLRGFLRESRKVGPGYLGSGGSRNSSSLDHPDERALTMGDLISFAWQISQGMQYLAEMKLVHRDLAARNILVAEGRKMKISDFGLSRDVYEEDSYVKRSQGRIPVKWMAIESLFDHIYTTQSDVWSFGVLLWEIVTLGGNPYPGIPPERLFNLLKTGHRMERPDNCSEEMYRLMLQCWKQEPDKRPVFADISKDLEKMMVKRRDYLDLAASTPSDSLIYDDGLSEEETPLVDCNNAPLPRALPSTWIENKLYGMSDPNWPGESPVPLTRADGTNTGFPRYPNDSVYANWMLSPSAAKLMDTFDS

[2] = tested on: parent untransformed BaF3 cells; test: Tritiated thymidine uptake cell proliferation assay, parental BaF3 (control); type: cell-based; conditions: Mus musculus, 3[H]-thymidine uptake, 72 h, medium with IL-3, read-out: BaF parental IC50
Method in brief: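 Control lines were parental BaF3 in IL-3-supplemented medium and ALK-, Abl- or RET-negative U937, seeded at 10 000 cells/well with serial inhibitor dilutions for 72 h at 37 °C. ³H-thymidine (1 μCi/well) was added for the final 16 h; IC50 (μM) is the concentration halving uptake versus DMSO.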

[3] = biological target: T4, BaF3 cells transformed with the oncogenic fusion protein NPM/ALK (Homo sapiens, UniProt Q9UM73); test: Tritiated thymidine uptake cell proliferation assay, BaF3 NPM/ALK; type: cell-based; conditions: 3[H]-thymidine uptake, 72 h; read-out: BaF NPM/ALK IC50
T4 construct: fused on or other part: P06748 (Nucleophosmin)
T4 sequence (Q9UM73 whole entry, change not shown, the tested form may be a part): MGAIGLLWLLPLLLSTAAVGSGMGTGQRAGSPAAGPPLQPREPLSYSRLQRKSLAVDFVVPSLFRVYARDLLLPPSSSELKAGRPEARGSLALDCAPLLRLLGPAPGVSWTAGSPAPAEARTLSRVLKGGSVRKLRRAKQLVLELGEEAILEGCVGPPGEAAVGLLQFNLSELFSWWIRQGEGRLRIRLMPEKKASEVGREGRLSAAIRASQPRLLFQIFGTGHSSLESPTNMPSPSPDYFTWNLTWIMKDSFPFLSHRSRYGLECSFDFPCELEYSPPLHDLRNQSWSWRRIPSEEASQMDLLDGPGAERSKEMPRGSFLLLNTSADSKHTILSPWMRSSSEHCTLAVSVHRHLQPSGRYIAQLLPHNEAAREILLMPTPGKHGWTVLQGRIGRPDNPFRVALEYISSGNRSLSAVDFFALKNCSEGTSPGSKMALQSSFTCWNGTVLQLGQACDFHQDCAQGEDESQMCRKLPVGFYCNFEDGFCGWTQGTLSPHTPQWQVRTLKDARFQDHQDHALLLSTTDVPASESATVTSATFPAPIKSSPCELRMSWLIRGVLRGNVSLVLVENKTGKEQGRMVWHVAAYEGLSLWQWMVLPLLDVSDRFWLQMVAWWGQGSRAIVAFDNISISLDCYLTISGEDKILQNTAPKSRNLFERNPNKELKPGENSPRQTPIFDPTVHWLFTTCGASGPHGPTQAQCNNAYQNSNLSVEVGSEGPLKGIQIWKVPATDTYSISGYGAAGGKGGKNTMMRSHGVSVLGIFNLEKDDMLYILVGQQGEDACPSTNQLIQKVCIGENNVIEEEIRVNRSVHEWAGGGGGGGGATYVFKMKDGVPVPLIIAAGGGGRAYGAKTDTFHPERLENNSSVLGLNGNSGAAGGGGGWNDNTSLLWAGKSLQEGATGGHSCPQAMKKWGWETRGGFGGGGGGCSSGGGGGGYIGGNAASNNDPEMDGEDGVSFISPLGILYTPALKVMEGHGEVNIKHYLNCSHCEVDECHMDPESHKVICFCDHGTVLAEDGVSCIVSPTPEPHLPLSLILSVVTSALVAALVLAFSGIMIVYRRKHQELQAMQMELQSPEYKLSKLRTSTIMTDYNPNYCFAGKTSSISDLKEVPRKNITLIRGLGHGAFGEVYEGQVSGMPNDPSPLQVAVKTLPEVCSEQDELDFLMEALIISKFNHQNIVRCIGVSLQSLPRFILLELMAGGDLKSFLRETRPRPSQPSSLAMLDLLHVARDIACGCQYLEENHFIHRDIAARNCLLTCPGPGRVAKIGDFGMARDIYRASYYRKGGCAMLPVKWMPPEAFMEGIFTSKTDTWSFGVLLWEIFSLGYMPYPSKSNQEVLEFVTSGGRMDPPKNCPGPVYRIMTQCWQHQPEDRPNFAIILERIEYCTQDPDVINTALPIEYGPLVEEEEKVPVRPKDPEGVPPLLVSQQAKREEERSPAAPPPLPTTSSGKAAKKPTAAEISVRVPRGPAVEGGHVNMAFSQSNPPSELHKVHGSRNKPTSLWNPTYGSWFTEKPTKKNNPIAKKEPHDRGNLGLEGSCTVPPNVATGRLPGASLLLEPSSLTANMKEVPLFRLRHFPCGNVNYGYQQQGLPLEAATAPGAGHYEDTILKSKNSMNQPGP
Method in brief: (§1)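 Cells were seeded at 10 000/well with serial inhibitor dilutions or DMSO vehicle and incubated 72 h at 37 °C, with ^3[H]-thymidine (1 μCi/well) added for the final 16 h. Incorporation was read by β scintillation counting. IC50 (μM) is the concentration giving a 50% decrease in uptake versus controls.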

[4] = biological target: BaF3 cells transformed with the oncogenic fusion protein bcr-abl (Homo sapiens, UniProt P00519); test: Tritiated thymidine uptake cell proliferation assay, BaF3 BCR/ABL; type: cell-based; conditions: 3[H]-thymidine uptake, 72 h; read-out: BaF BCR/ABL IC50
Description: (§2) Inhibition of the Proliferation of Bcr/Abl Positive Cells
(§3) Method: Tritiated Thymidine Uptake Cell Proliferation Assay
(§4) The following procedure was used with parent untransformed BaF3 cells, BaF3 cells transformed with the oncogenic fusion protein bcr-abl, Abl-negative U937 cells, or Bcr-abl positive LAMA-84 cells. The parent untransformed BaF3 cells and Abl-negative U937 cells are used as controls. Cells were seeded in U-bottomed 96-well plates at 10 000 cells/well in a volume of 100 μL in supplemented medium. In the case of the parent untransformed BaF3 cells, the medium was supplemented with IL-3. Serial dilutions of inhibitors were added to the appropriate wells and volumes adjusted to 200 μL. Controls were treated with the equivalent volume of vehicle, DMSO, alone. Plates were incubated at 37° C. for 72 h. ^3[H]-thymidine (1 μCi/well) was added for the last 16 h of incubation. Cells were harvested on to paper filters and ^3[H]-thymidine incorporation was measured using a β scintillation counter (1430 MicroBeta, Wallac, Turku, Finland). The 50% inhibitory concentration (IC50) was defined as the concentration of inhibitor, expressed in micromolar, that gave a 50% decrease in ^3H-thymidine uptake compared with controls.

[5] = biological target: T5, BaF3 cells transformed with the oncogenic fusion protein RET-PTC2 (Homo sapiens, UniProt P07949); test: Tritiated thymidine uptake cell proliferation assay, BaF3 RET/PTC; type: cell-based; conditions: 3[H]-thymidine uptake, 72 h; read-out: BaF RET/PTC IC50
T5 construct: fused on or other part: P10644 (cAMP-dependent protein kinase type I-alpha regulatory subunit)
Description: Inhibition of the Proliferation of RET-positive Cells
as §3
as §4, with “RET-PTC2,” for “bcr-abl, Abl-negative U937 cells,”, “RET-negative 11937” for “Bcr-abl positive LAMA-84”, “RET-negative” for “Abl-negative”, “^3[H]-thymidine” for “^3H-thymidine”

[6] = tested on: NPM/ALK positive KARPAS-299 cells; test: Tritiated thymidine uptake cell proliferation assay, KARPAS-299; type: cell-based; conditions: 3[H]-thymidine uptake, 72 h, read-out: K299 (NPM/ALK+) IC50
Description: Inhibition of the proliferation of NPM/ALK positive cells
as §3
as §4, with “NPM/ALK, NPM/ALK positive SUDHL-1 cells, ALK-negative” for “bcr-abl, Abl-negative”, “NPM/ALK” for “or Bcr-abl”, “KARPAS-299” for “LAMA-84”, “Alk-negative” for “Abl-negative”, “^3[H]-thymidine” for “^3H-thymidine”

[7] = tested on: NPM/ALK positive SUDHL-1 cells; test: Tritiated thymidine uptake cell proliferation assay, SUDHL-1; type: cell-based; conditions: 3[H]-thymidine uptake, 72 h
Method in brief: as §1

[8] = tested on: Bcr-abl positive LAMA-84 cells; test: Tritiated thymidine uptake cell proliferation assay, LAMA-84; type: cell-based; conditions: Homo sapiens, 3[H]-thymidine uptake, 72 h
Description: as §2, §3, §4

| SMILES | IC50 (Recombinant ALK kinase) [µM] | IC50 [1] [µM] | IC50 (Recombinant Ret protein) [µM] | IC50 [2] [µM] | GI50 [3] [µM] | GI50 [4] [µM] | GI50 [5] [µM] | IC50 [6] [µM] | IC50 [7] [µM] | IC50 [8] [µM] |
| --- | --- | --- | --- | --- | --- | --- | --- | --- | --- | --- |
| CN1CCN(Cc2ccc(C(=O)Nc3nc(-c4ccc5[nH]c6ncccc6c5c4)cs3)cc2)CC1 [R222] | 88 ± 4.3 | > 100 | 8.8 ± 1.6 | 1.5 | 1.5 | 2.5 | 1.6 | – | – | – |
| O=C(CBr)c1ccc2[nH]c3ncccc3c2c1 [R228] | – | 13 ± 4.6 | 16 | 13 | 8 | 18 | 11 | – | – | – |
| Clc1cnc2[nH]c3ccc(Br)cc3c2c1 [R252, 6-bromo-3-chloro-9H-pyrido[2,3-b]indole] | 1.7 ± 0.4 | – | – | > 20 | > 20 | > 20 | – | > 20 | – | – |
| COc1ccc(CNC(=O)CCC(=O)c2ccc3[nH]c4ncc(Cl)cc4c3c2)cc1 [R304, 4-(3-Chloro-9H-pyrido[2,3-b]indol-6-yl)-N-(4-methoxybenzyl)-4-oxobutyramide] | – | 5 | – | 19 ± 7 | 2.6 ± 1 | – | – | – | 8.4 | 1.6 |
| O=C(CSc1ccccc1)c1ccc2[nH]c3nc(Cl)ccc3c2c1 [R306, 1-(2-Chloro-9H-pyrido[2,3-b]indol-6-yl)-2-phenylsulfanylethanone] | 0.8 ± 0.3 | 3.5 ± 0.03 | 1.3 | 25 ± 3 | 7.3 ± 0.3 | – | – | – | 5.7 | 1.4 |
| COc1ccc(-c2ccc3[nH]c4nc(-c5ccc(OC)cc5)ccc4c3c2)cc1 [R311, 2,6-di(4-methoxyphenyl)-9H-pyrido[2,3-b]indole] | – | 8.3 | – | > 100 | 15 ± 3 | – | – | – | 32 | 55 |
| C(=C\c1cnc2[nH]c3ccc(-c4ccc(CN5CCOCC5)cc4)cc3c2c1)/c1ccccc1 [R314, 6-(4-(morpholin-4-yl)methylphenyl)-3-(2′-phenylethenyl)-9H-pyrido[2,3-b]indole] | – | > 50 | – | – | 1.6 ± 0.1 | – | – | – | 2.1 | 2.1 |
